Test results from paper PMC10721329, “Quisinostat is a brain-penetrant radiosensitizer in glioblastoma” (JCI Insight, 2023).
Several values for one entry are separate records, joined by “and”; a condition that tells them apart may be missing. Identical values can stand only once.

Assays:
[1] = Dose-response cell viability assay in normal astrocytes; type: cell-based, human; settings: human, primary human astrocytes (NHA), NHA, 3 days, read-out: Cell viability (fraction of DMSO control)
Procedure: (§1) GSCs were seeded in laminin-coated tissue culture–treated 96-well plates (clear bottom, white plate; Corning) at a density of 1000–5000 cells per well (cell line dependent) in GSC media. U87-MG were seeded using their normal growth conditions without laminin (10% bovine calf serum in DMEM). All cells were incubated at 37°C and allowed to adhere overnight. The next day, cells were treated with incremental concentrations of QST (Selleckchem; 0, 10, 25, 50, 100, 250, 500, and 1000 nM) diluted in media. Cells treated without QST were treated with DMSO diluted in media. Following treatment with QST, cells were grown for 3 to 5 days (cell line dependent), and cell viability was measured and quantified. All cell viability measurements were performed using the CellTiter-Glo luminescent cell viability assay (Promega) following the manufacturer’s instructions. For the sulforhodamine B colorimetric assay for cytotoxicity, the protocol was performed as described elsewhere ([33]). All cell viability results represent the mean of at least 3 biological replicates, each containing 3 technical replicates.
Supplemental Figure 5. QST induces cell death in tumor tissue but not surrounding normal
brain tissue in vivo. (A) Dose-response curves with QST (10–1000 nM) in primary human
astrocytes. Cell viability 3 days after treatment with QST. […]

[2] = test system: U87 flank tumors; test: U87 flank tumor growth, QST with or without IR; type: in vivo, athymic nude mice; settings: for flank tumor volume: U87, individual mice
Procedure: We next examined whether QST treatment alone or in combination with IR would be effective in slowing tumor growth in a flank model of GBM (U87). Tumor-bearing mice receiving IR were treated with 2-Gy fractions on Monday, Wednesday, and Friday (MWF) 2 hours after dosing with either vehicle solution or QST (10 mg/kg), for a total dose of 6 Gy. Following completion of IR, mice continued to receive vehicle or QST until the tumors reached the maximum volume threshold (Figure 5C). […] The mean tumor volume in mice with combination treatment was approximately 4.5-fold less than that in vehicle-treated mice at study completion (Figure 5D). […]
Rad225XL irradiator (Precision X -Ray).
For flank implantations, cells were pre pared in a 1:1 ratio with 100 uL Matrigel (Corning […]
syringe fitted with a 26 -gauge needle. Mice were anesthetized with isoflurane in a plastic desiccator placed in an ex ternally vented fume hood. The U87 -Matrigel cell suspension was then subcutaneously injected into the flank of the mouse on the posterior/lateral aspect of the lower rib cage. Mice were monitored daily , and growth of flank tumor area was measured with a di gital caliper (ThermoFisher) twice a week. […]
Preparation of QST for In Vivo Use
For in vivo preparation, QST was dissolved in 50% polyethylene glycol (PEG) 300, 50% sterile water solution for 10 mg/kg dosing. The suspension was then sonicated for 10 minutes to allow the drug to completely dissolve. Finally, the pH of both the drug and the vehicle solutions was adjusted to 7.4 before intraperitoneal dosing. […]
In Vivo Irradiation Studies
Intracranial or flank tumor–bearing nude mice were sedated with gaseous isoflurane before
IR. On the first week of treatment, 2 hours after treatment with QST or vehicle, the mice were […]
treated with 2 Gy of ionizing radiation on MWF for a total 6 Gy (3 doses). Ionizing radiation was administered with the RS2000 series biological research irradiator (Rad Source Technologies).
Treatment of Flank-Implanted Mice with QST and/or Radiation
Implanted flank tumors were allowed to grow until the tumor size reached 100 mm3 volume. Mice were randomized into groups before treatment and underwent treatment on MWF for the entire duration of the experiment until the tumor volumes exceeded 2000 mm3. Treatment groups included vehicle (50% PEG-300), QST alone (10 mg/kg), flank IR treatment with vehicle (2 Gy), and flank IR treatment (2 Gy) with QST (10 mg/kg). For mice receiving IR treatment with or without QST, mice were treated with 2 Gy on MWF for a total 6 Gy during the first week of treatment. QST was administered to mice through intraperitoneal injections 2 hours before flank tumor radiation treatment. Upon completion of the radiation regimen, IR-treated mice subsequently received QST or vehicle alone for the rest of the experiment. Tumor growth and treatment response were monitored by manually measuring the tumor area twice per week starting at 13 days after implantation. Upon reaching the tumor volume threshold (2000 mm3), mice were sacrificed, and plasma and tissue samples were harvested for PD and PK analyses 2 hours after treatment with a final dose of QST (10 mg/kg).
Treatment of Mice with Intracranially Implanted QST and/or Radiation
Mice with implanted tumors were allowed to grow until the tumor bioluminescence score reached […] radiance (p/s/[…]/sr). Mice were randomized into groups before treatment. For survival studies, mice underwent treatment on MWF for the entire duration of the experiment until moribund. For mice receiving IR treatment with or without QST, mice were treated with 2

[3] = test system: GB126 cells; test: QST + IR sulforhodamine B cytotoxicity assay; type: cell-based, human; settings: replicates
Procedure: (§2) There is preclinical evidence that HDACis may be effective in enhancing the sensitivity of tumor cells to IR therapy ([24], [28]–[31]). We hypothesized that the accumulation of DNA damage induced by QST, in combination with IR, may synergistically reduce GSC viability. To examine this hypothesis, we treated 2 cell lines (BT145 and GB126) with increasing nanomolar doses of QST (10–1000 nM) and increasing doses of IR (2–4 Gy) (Figure 4, A and B). […] We then analyzed our combinatorial dose-response cell viability data using SynergyFinder, an application that assigns synergy scores using various major reference models ([32]).
as §1

[4] = test system: BT145 cells; test: QST + IR sulforhodamine B cytotoxicity assay; type: cell-based, human; settings: replicates
Procedure: as §2, §1

[5] = Quisinostat log[nm] 1, 0 Gy, control 0 Gy = 1
[6] = Quisinostat log[nm] 1.39794, 0 Gy
[7] = Quisinostat log[nm] 1.39794, 2 Gy
[8] = Quisinostat log[nm] 1.39794, 4 Gy
[9] = Quisinostat log[nm] 1.69897, 0 Gy
[10] = Quisinostat log[nm] 1.69897, 2 Gy
[11] = Quisinostat log[nm] 1.69897, 4 Gy

SMILES: Cn1cc(CNCC2CCN(c3ncc(C(=O)NO)cn3)CC2)c2ccccc21 [QST, quisinostat]
- viability at 3 days, 10 nM ([1]; QST 10 nM (log[nM] 1)): 60.9%
- viability at 3 days, 25 nM ([1]; QST 25 nM (log[nM] 1.39794)): 46.7%
- viability at 3 days, 50 nM ([1]; QST 50 nM (log[nM] 1.69897)): 36.5%
- viability at 3 days, 100 nM ([1]; QST 100 nM (log[nM] 2)): 27.2%
- flank tumor volume ([2]; Combo 10 mg/kg Qstat + 6 Gy IR, day 13 post injection): 51.304 mm^3 and 81.733 mm^3 and 83.824 mm^3 and 92.512 mm^3 and 72.03 mm^3 and 53.016 mm^3 and 98.75 mm^3 and 120.094 mm^3
- flank tumor volume ([2]; Combo 10 mg/kg Qstat + 6 Gy IR, day 17 post injection): 65.596 mm^3 and 96.768 mm^3 and 135.816 mm^3 and 150.381 mm^3 and 167.445 mm^3 and 67.228 mm^3 and 109.551 mm^3 and 200.688 mm^3
- flank tumor volume ([2]; Combo 10 mg/kg Qstat + 6 Gy IR, day 27 post injection): 91.2925 mm^3 and 64 mm^3 and 59.048 mm^3 and 123.008 mm^3 and 158.112 mm^3 and 72.5 mm^3 and 139.707 mm^3 and 397.373 mm^3
- flank tumor volume ([2]; Combo 10 mg/kg Qstat + 6 Gy IR, day 31 post injection): 237.141 mm^3 and 56.316 mm^3 and 42.768 mm^3 and 189.216 mm^3 and 218.05 mm^3 and 112.694 mm^3 and 312.188 mm^3 and 612.562 mm^3
- flank tumor volume ([2]; Combo 10 mg/kg Qstat + 6 Gy IR, day 34 post injection): 414.304 mm^3 and 54.872 mm^3 and 50.274 mm^3 and 397.488 mm^3 and 349.272 mm^3 and 222.95 mm^3 and 441 mm^3 and 1009.49 mm^3
- flank tumor volume ([2]; Quisinostat 10 mg/kg IP MWF, day 13 post injection): 95.2875 mm^3 and 73.75 mm^3 and 78.4195 mm^3 and 109.8 mm^3 and 67.5 mm^3 and 101.92 mm^3 and 86.756 mm^3 and 57.6 mm^3 and 136.416 mm^3 and 41.8275 mm^3
- flank tumor volume ([2]; Quisinostat 10 mg/kg IP MWF, day 17 post injection): 210.7 mm^3 and 60.025 mm^3 and 67.76 mm^3 and 121.838 mm^3 and 70 mm^3 and 176.418 mm^3 and 85.054 mm^3 and 154.638 mm^3 and 242.76 mm^3 and 103.823 mm^3
- flank tumor volume ([2]; Quisinostat 10 mg/kg IP MWF, day 20 post injection): 451.315 mm^3 and 83.1875 mm^3 and 86.756 mm^3 and 196.02 mm^3 and 52.9 mm^3 and 139.24 mm^3 and 89.056 mm^3 and 128.797 mm^3 and 283.279 mm^3 and 129.762 mm^3
- flank tumor volume ([2]; Quisinostat 10 mg/kg IP MWF, day 27 post injection): 1576.6 mm^3 and 97.556 mm^3 and 122.247 mm^3 and 660 mm^3 and 99.0945 mm^3 and 314.792 mm^3 and 96.9105 mm^3 and 423.864 mm^3 and 686.07 mm^3 and 596.712 mm^3
- flank tumor volume ([2]; Quisinostat 10 mg/kg IP MWF, day 31 post injection): 2338.49 mm^3 and 75 mm^3 and 125.736 mm^3 and 1098.08 mm^3 and 116.614 mm^3 and 483.181 mm^3 and 162.729 mm^3 and 576 mm^3 and 626.336 mm^3 and 1078.78 mm^3
- flank tumor volume ([2]; Quisinostat 10 mg/kg IP MWF, day 34 post injection): 2338.49 mm^3 and 62.5 mm^3 and 144.652 mm^3 and 1381.2 mm^3 and 108.192 mm^3 and 501 mm^3 and 248.832 mm^3 and 786.52 mm^3 and 822.197 mm^3 and 1622.4 mm^3
- mean tumor volume, fold less than in vehicle-treated mice ([2]; U87 flank, QST 10 mg/kg + IR 6 Gy combination, at study completion): approximately 4.5 fold
- SRB assay, relative signal [3, 5]: 0.6958 and 0.7271 and 0.697
- SRB assay, relative signal ([3]; Quisinostat log[nm] 1, 2 Gy): 0.4678 and 0.5322 and 0.5047
- SRB assay, relative signal ([3]; Quisinostat log[nm] 1, 4 Gy): 0.3918 and 0.337 and 0.3993
- SRB assay, relative signal [3, 6]: 0.6332 and 0.6836 and 0.5963
- SRB assay, relative signal [3, 7]: 0.4122 and 0.4783 and 0.4726
- SRB assay, relative signal [3, 8]: 0.3723 and 0.2821 and 0.3826
- SRB assay, relative signal [3, 9]: 0.574 and 0.5854 and 0.5737
- SRB assay, relative signal [3, 10]: 0.3752 and 0.4419 and 0.4352
- SRB assay, relative signal [3, 11]: 0.3383 and 0.2983 and 0.3763
- SRB assay, relative signal ([3]; Quisinostat log[nm] 2, 0 Gy): 0.4806 and 0.4569 and 0.5515
- SRB assay, relative signal ([3]; Quisinostat log[nm] 2, 2 Gy): 0.3411 and 0.3753 and 0.4318
- SRB assay, relative signal ([3]; Quisinostat log[nm] 2, 4 Gy): 0.3084 and 0.2397 and 0.3383
- SRB assay, relative signal [4, 5]: 0.6967 and 0.6385 and 0.6781
- SRB assay, relative signal ([4]; Quisinostat log[nm] 1, 2 Gy): 0.3422 and 0.2636 and 0.3938
- SRB assay, relative signal ([4]; Quisinostat log[nm] 1, 4 Gy): 0.2576 and 0.2273 and 0.1797
- SRB assay, relative signal [4, 6]: 0.5611 and 0.5715 and 0.6072
- SRB assay, relative signal [4, 7]: 0.3016 and 0.237 and 0.3379
- SRB assay, relative signal [4, 8]: 0.251 and 0.1999 and 0.186
- SRB assay, relative signal [4, 9]: 0.3909 and 0.4995 and 0.4801
- SRB assay, relative signal [4, 10]: 0.2862 and 0.2318 and 0.3442
- SRB assay, relative signal [4, 11]: 0.2294 and 0.2058 and 0.1789
- SRB assay, relative signal ([4]; Quisinostat log[nm] 2, 0 Gy): 0.4525 and 0.4659 and 0.3488
- SRB assay, relative signal ([4]; Quisinostat log[nm] 2, 2 Gy): 0.304 and 0.2255 and 0.2864
- SRB assay, relative signal ([4]; Quisinostat log[nm] 2, 4 Gy): 0.2104 and 0.1978 and 0.1926
